Where a name gives a salt, the structure may show the parent alone.
How the values were obtained:
[1] = refractive index (Na D-line) (dimensionless); settings: 293.15 K; 101.33 kPa; Liquid; Standard Abbe refractometry
[2] = Liquid; for mass density / viscosity: 101.33 kPa; for mass density: Pycnometric method; for vapor or sublimation pressure: Closed cell (Static) method; for viscosity: Capillary tube (Ostwald / Ubbelohde) method

CCOC(=O)C(F)(F)F [ethyl trifluoroacetate]
Settings | refractive index
[1] | 1.3086

[2]
Settings | mass density [kg/m3] | vapor or sublimation pressure [kPa] | viscosity [mPa·s]
278.08 K | 1218.9 | – | –
285.15 K | 1205.9 | – | –
289.23 K | 1197.6 | – | –
293.35 K | – | 17.93 | –
293.45 K | – | – | 0.4635
293.68 K | 1188.3 | – | –
296.02 K | – | – | 0.4506
298.3 K | – | 22.86 | –
298.63 K | – | – | 0.4356
298.84 K | 1179 | – | –
300.75 K | – | 25.36 | –
301.19 K | – | – | 0.4234
303.35 K | – | 28.45 | –
303.75 K | – | – | 0.4107
303.86 K | 1168 | – | –
305.85 K | – | 31.2 | –
306.3 K | – | – | 0.3986
307.89 K | 1160.9 | – | –
308.35 K | – | 34.13 | –
308.85 K | – | – | 0.3881
310.85 K | – | 38 | –
311.33 K | – | – | 0.3775
312.65 K | 1151.4 | – | –
313.35 K | – | 42.3 | –
313.93 K | – | – | 0.3674
315.85 K | – | 47.2 | –
316.43 K | – | – | 0.3581
317.43 K | 1142.2 | – | –
318.4 K | – | 52 | –
318.96 K | – | – | 0.3497
320.97 K | – | 57.2 | –
321.63 K | – | – | 0.3399
322.5 K | 1131.3 | – | –
323.45 K | – | 63.2 | –
324.15 K | – | – | 0.3314
326.15 K | – | 70.64 | –
326.69 K | – | – | 0.323
328.75 K | – | 77.9 | –
329.16 K | – | – | 0.3153
331.45 K | – | 86.5 | –
331.64 K | – | – | 0.3075
334.05 K | – | 94.15 | –
334.32 K | – | – | 0.3009
335.25 K | – | 99.92 | –
335.65 K | – | 101.33 | –

CO [methanol]
[2]
Settings | vapor or sublimation pressure [kPa] | viscosity [mPa·s]
293.35 K | 13.54 | –
302.45 K | – | 0.513
303.35 K | 22.05 | –
310.85 K | 31.07 | –
313.5 K | – | 0.443
320.97 K | 49.45 | –
323.55 K | – | 0.386
331.45 K | 77.05 | –
333.85 K | – | 0.345
335.95 K | 95.83 | –
